From ChEMBL document CHEMBL3046071, “Synthesis and microbial evaluation of novel N(1)-Arilidene-N(2)-t(3)-methyl-r(2),c(6)-diaryl-piperidin-4-one azine derivatives” (2006)
In brackets after ≈: the same amount, converted by molar mass.

Legend:
Type in all cases: functional
Candida [1] = assay: Antifungal activity against Candida-6
Bacillus subtilis = assay: Antibacterial activity against Bacillus subtilis
Aspergillus flavus = assay: Antifungal activity against Aspergillus flavus
Staphylococcus aureus = assay: Antibacterial activity against Staphylococcus aureus
Escherichia coli = assay: Antibacterial activity against Escherichia coli
Candida [2] = assay: Antifungal activity against Candida-51
Aspergillus niger = assay: Antifungal activity against Aspergillus niger
Enterococcus faecalis = assay: Antibacterial activity against Enterococcus faecalis
Pseudomonas aeruginosa = assay: Antibacterial activity against Pseudomonas aeruginosa

| MIC (Candida [1]) | MIC (Bacillus subtilis) | MIC (Aspergillus flavus) | MIC (Staphylococcus aureus) | MIC (Escherichia coli) | MIC (Candida [2]) | MIC (Aspergillus niger) | MIC (Enterococcus faecalis) | MIC (Pseudomonas aeruginosa) | Compound |
| --- | --- | --- | --- | --- | --- | --- | --- | --- | --- |
| 100 µg/mL (≈ 358 µM) | 100 µg/mL (≈ 358 µM) | 100 µg/mL (≈ 358 µM) | 100 µg/mL (≈ 358 µM) | – | – | – | – | – | CC1/C(=N/N)CC(c2ccccc2)NC1c1ccccc1 (stereo not given) |
| 100 µg/mL (≈ 386 µM) | 100 µg/mL (≈ 386 µM) | 100 µg/mL (≈ 386 µM) | 100 µg/mL (≈ 386 µM) | – | – | – | – | – | CC1/C(=N/N)CC(c2ccco2)NC1c1ccco1 (stereo not given) |
| 100 µg/mL (≈ 242 µM) | 50 µg/mL (≈ 121 µM) | 100 µg/mL (≈ 242 µM) | 50 µg/mL (≈ 121 µM) | 100 µg/mL (≈ 242 µM) | 50 µg/mL (≈ 121 µM) | 50 µg/mL (≈ 121 µM) | 100 µg/mL (≈ 242 µM) | 50 µg/mL (≈ 121 µM) | CC1/C(=N/N=C/c2ccccc2[N+](=O)[O-])CC(c2ccccc2)NC1c1ccccc1 (stereo not given) |
| 50 µg/mL (≈ 130 µM) | 50 µg/mL (≈ 130 µM) | 100 µg/mL (≈ 261 µM) | 50 µg/mL (≈ 130 µM) | 100 µg/mL (≈ 261 µM) | 25 µg/mL (≈ 65.2 µM) | 100 µg/mL (≈ 261 µM) | 50 µg/mL (≈ 130 µM) | 50 µg/mL (≈ 130 µM) | CC1/C(=N/N=C/c2ccccc2O)CC(c2ccccc2)NC1c1ccccc1 (stereo not given) |
| 12.5 µg/mL (≈ 35 µM) | 12.5 µg/mL (≈ 35 µM) | 50 µg/mL (≈ 140 µM) | 12.5 µg/mL (≈ 35 µM) | 25 µg/mL (≈ 69.9 µM) | 12.5 µg/mL (≈ 35 µM) | 12.5 µg/mL (≈ 35 µM) | 50 µg/mL (≈ 140 µM) | 50 µg/mL (≈ 140 µM) | CC1/C(=N/N=C/c2ccco2)CC(c2ccccc2)NC1c1ccccc1 (stereo not given) |
| 12.5 µg/mL (≈ 32.7 µM) | 6.25 µg/mL (≈ 16.4 µM) | 50 µg/mL (≈ 131 µM) | 25 µg/mL (≈ 65.5 µM) | 12.5 µg/mL (≈ 32.7 µM) | 12.5 µg/mL (≈ 32.7 µM) | 25 µg/mL (≈ 65.5 µM) | 25 µg/mL (≈ 65.5 µM) | 25 µg/mL (≈ 65.5 µM) | CC1/C(=N/N=C/c2ccccc2Cl)CC(c2ccco2)NC1c1ccco1 (stereo not given) |
| 50 µg/mL | 100 µg/mL | 100 µg/mL | 100 µg/mL | 50 µg/mL | 100 µg/mL | 100 µg/mL | 100 µg/mL | 100 µg/mL | CC1/C(=N/N=C2\CC(c3ccccc3)NC(c3ccccc3)C2C)CC(c2ccccc2)NC1c1ccccc1 (mixture of isomers) |
| 25 µg/mL | 12.5 µg/mL | 100 µg/mL | 50 µg/mL | 12.5 µg/mL | 50 µg/mL | 50 µg/mL | 25 µg/mL | 25 µg/mL | C/C(=N\N=C1/CC(c2ccccc2)NC(c2ccccc2)C1C)c1ccccc1 (mixture of isomers) |
| 12.5 µg/mL | 6.25 µg/mL | 100 µg/mL | 25 µg/mL | 12.5 µg/mL | 12.5 µg/mL | 50 µg/mL | 25 µg/mL | 50 µg/mL | COc1ccc(/C=N/N=C2\CC(c3ccccc3)NC(c3ccccc3)C2C)cc1 (mixture of isomers) |

| Compound | MIC (Candida [1]) | MIC (Bacillus subtilis) | MIC (Aspergillus flavus) | MIC (Staphylococcus aureus) | MIC (Escherichia coli) | MIC (Candida [2]) | MIC (Aspergillus niger) | MIC (Enterococcus faecalis) | MIC (Pseudomonas aeruginosa) |
| --- | --- | --- | --- | --- | --- | --- | --- | --- | --- |
| C[C@@H]1[C@H](O)[C@@H](C)/C=C/C=C/C=C/C=C/C=C/C=C/C=C/[C@H](O[C@@H]2O[C@H](C)[C@@H](O)[C@H](N)[C@@H]2O)C[C@@H]2O[C@](O)(C[C@@H](O)C[C@@H](O)[C@H](O)CC[C@@H](O)C[C@@H](O)CC(=O)O[C@H]1C)C[C@H](O)[C@H]2C(=O)O [AMPHOTERICIN B] | 25 µg/mL (≈ 27.1 µM) | – | 50 µg/mL (≈ 54.1 µM) | – | – | 25 µg/mL (≈ 27.1 µM) | 50 µg/mL (≈ 54.1 µM) | – | – |
| CN[C@@H]1[C@H](O[C@H]2[C@H](O[C@H]3[C@H](O)[C@@H](O)[C@H](N=C(N)N)[C@@H](O)[C@@H]3N=C(N)N)O[C@@H](C)[C@]2(O)C=O)O[C@@H](CO)[C@H](O)[C@H]1O [STREPTOMYCIN] | – | 12.5 µg/mL (≈ 21.5 µM) | – | 25 µg/mL (≈ 43 µM) | 12.5 µg/mL (≈ 21.5 µM) | – | – | 50 µg/mL (≈ 86 µM) | 25 µg/mL (≈ 43 µM) |
